System: CD3+ cells
Assay: Gene expression in CD3+ cells from CD14-ve PBMCs cultured with naltrexone (Illumina biochips)
Type: cell-based, human
Settings: 4 h
Experimental: The RNA was then extracted from the cells using Trizol then isopropanol. The expression of the genes was measured using Illumina platform with biochips surveying the total human genome. […] The ratio of treated:untreated was calculated and the 25% change from untreated considered relevant.

With `O=C1CC[C@@]2(O)[C@H]3Cc4ccc(O)c5c4[C@@]2(CCN3CC2CC2)[C@H]1O5` [NTX, morphinan-6-one,17-(cyclopropylmethyl)-4,5-epoxy-3,14-dihydroxy-(5a)] the “number of genes upregulated by LDN but unchanged by NTX” value (10 nM LDN vs 10 uM NTX, 19,571 genes called present, 25% change relevant) was 223 genes, the “ACTB expression, LDN” value (10 nM naltrexone (LDN)) was 156 and the “ALDH4A1 expression, LDN” value (10 nM naltrexone (LDN)) was 135. The “ASAP1 expression, LDN” value (10 nM naltrexone (LDN)) was 97, the “BCLAF1 expression, LDN” value (10 nM naltrexone (LDN)) was 130 and the “BIRC3 expression, LDN” value (10 nM naltrexone (LDN)) was 173. For the same compound, the “CASZ1 expression, LDN” value (10 nM naltrexone (LDN)) was 167, the “CDC42SE2 expression, LDN” value (10 nM naltrexone (LDN)) was 119 and the “CDKN2AIP expression, LDN” value (10 nM naltrexone (LDN)) was 93. The “DRAP1 expression, LDN” value (10 nM naltrexone (LDN)) was 309, the “DYNLL2 expression, LDN” value (10 nM naltrexone (LDN)) was 93 and the “EIF2S3 expression, LDN” value (10 nM naltrexone (LDN)) was 135. For the same compound, the “EIF3E expression, LDN” value (10 nM naltrexone (LDN)) was 427, the “EIF4B expression, LDN” value (10 nM naltrexone (LDN)) was 594 and the “EZR expression, LDN” value (10 nM naltrexone (LDN)) was 1218. The “FRG1 expression, LDN” value (10 nM naltrexone (LDN)) was 99, the “H3F3A expression, LDN” value (10 nM naltrexone (LDN)) was 616 and the “HIST1H4C expression, LDN” value (10 nM naltrexone (LDN)) was 1093. The “HPCAL1 expression, LDN” value (10 nM naltrexone (LDN)) was 491, the “ITGB2 expression, LDN” value (10 nM naltrexone (LDN)) was 719 and the “KCTD6 expression, LDN” value (10 nM naltrexone (LDN)) was 105. For the same compound, the “LSM5 expression, LDN” value (10 nM naltrexone (LDN)) was 166, the “MAP4K1 expression, LDN” value (10 nM naltrexone (LDN)) was 475 and the “MORF4L1 expression, LDN” value (10 nM naltrexone (LDN)) was 135. The “MTF1 expression, LDN” value (10 nM naltrexone (LDN)) was 84, the “MYLK expression, LDN” value (10 nM naltrexone (LDN)) was 166 and the “NUCB1 expression, LDN” value (10 nM naltrexone (LDN)) was 436. For the same compound, the “OR10A6 expression, LDN” value (10 nM naltrexone (LDN)) was 152, the “PAH expression, LDN” value (10 nM naltrexone (LDN)) was 135 and the “PDCD4 expression, LDN” value (10 nM naltrexone (LDN)) was 83. For the same compound, the “PECI expression, LDN” value (10 nM naltrexone (LDN)) was 85, the “PRPF8 expression, LDN” value (10 nM naltrexone (LDN)) was 464 and the “PSME2 expression, LDN” value (10 nM naltrexone (LDN)) was 144. The “PVRL2 expression, LDN” value (10 nM naltrexone (LDN)) was 151, the “RASAL3 expression, LDN” value (10 nM naltrexone (LDN)) was 356 and the “S100A6 expression, LDN” value (10 nM naltrexone (LDN)) was 240. The “SH3BGRL3 expression, LDN” value (10 nM naltrexone (LDN)) was 327, the “SPOCK2 expression, LDN” value (10 nM naltrexone (LDN)) was 1322 and the “WDR75 expression, LDN” value (10 nM naltrexone (LDN)) was 81. For the same compound, the “YWHAZ expression, LDN” value (10 nM naltrexone (LDN)) was 809, the “ACTB L/U-score” value (10 nM naltrexone) was “U (increase)” and the “ALDH4A1 L/U-score” value (10 nM naltrexone) was “U (increase)”. For the same compound, the “ASAP1 L/U-score” value (10 nM naltrexone) was “D (reduction)”, the “BCLAF1 L/U-score” value (10 nM naltrexone) was “D (reduction)” and the “BIRC3 L/U-score” value (10 nM naltrexone) was “D (reduction)”. The “CASZ1 L/U-score” value (10 nM naltrexone) was “U (increase)”, the “CDC42SE2 L/U-score” value (10 nM naltrexone) was “D (reduction)” and the “CDKN2AIP L/U-score” value (10 nM naltrexone) was “D (reduction)”. The “DRAP1 L/U-score” value (10 nM naltrexone) was “U (increase)”, the “DYNLL2 L/U-score” value (10 nM naltrexone) was “D (reduction)” and the “EIF2S3 L/U-score” value (10 nM naltrexone) was “D (reduction)”. For the same compound, the “EIF3E L/U-score” value (10 nM naltrexone) was “D (reduction)”, the “EIF3M L/U-score” value (10 nM naltrexone) was “D (reduction)” and the “EIF4B L/U-score” value (10 nM naltrexone) was “U (increase)”. For the same compound, the “EZR L/U-score” value (10 nM naltrexone) was “U (increase)”, the “FRG1 L/U-score” value (10 nM naltrexone) was “D (reduction)” and the “H3F3A L/U-score” value (10 nM naltrexone) was “D (reduction)”. For the same compound, the “HIST1H4C L/U-score” value (10 nM naltrexone) was “D (reduction)”, the “HPCAL1 L/U-score” value (10 nM naltrexone) was “U (increase)” and the “ITGB2 L/U-score” value (10 nM naltrexone) was “U (increase)”. For the same compound, the “KCTD6 L/U-score” value (10 nM naltrexone) was “D (reduction)”, the “LSM5 L/U-score” value (10 nM naltrexone) was “D (reduction)” and the “MAP4K1 L/U-score” value (10 nM naltrexone) was “U (increase)”. The “MORF4L1 L/U-score” value (10 nM naltrexone) was “D (reduction)”, the “MTF1 L/U-score” value (10 nM naltrexone) was “D (reduction)” and the “MYLK L/U-score” value (10 nM naltrexone) was “U (increase)”. For the same compound, the “NUCB1 L/U-score” value (10 nM naltrexone) was “U (increase)”, the “OR10A6 L/U-score” value (10 nM naltrexone) was “U (increase)” and the “PAH L/U-score” value (10 nM naltrexone) was “U (increase)”. The “PDCD4 L/U-score” value (10 nM naltrexone) was “D (reduction)”, the “PECI L/U-score” value (10 nM naltrexone) was “D (reduction)” and the “PRPF8 L/U-score” value (10 nM naltrexone) was “U (increase)”. The “PSME2 L/U-score” value (10 nM naltrexone) was “D (reduction)”, the “PVRL2 L/U-score” value (10 nM naltrexone) was “U (increase)” and the “RASAL3 L/U-score” value (10 nM naltrexone) was “U (increase)”. The “S100A6 L/U-score” value (10 nM naltrexone) was “U (increase)”, the “SH3BGRL3 L/U-score” value (10 nM naltrexone) was “U (increase)” and the “SPOCK2 L/U-score” value (10 nM naltrexone) was “U (increase)”. The “WDR75 L/U-score” value (10 nM naltrexone) was “D (reduction)”, the “YWHAZ L/U-score” value (10 nM naltrexone) was “U (increase)” and the “ACTB expression, NTX” value (10 uM naltrexone (NTX)) was 124. For the same compound, the “ALDH4A1 expression, NTX” value (10 uM naltrexone (NTX)) was 95, the “ASAP1 expression, NTX” value (10 uM naltrexone (NTX)) was 114 and the “BCLAF1 expression, NTX” value (10 uM naltrexone (NTX)) was 159. The “BIRC3 expression, NTX” value (10 uM naltrexone (NTX)) was 226, the “CASZ1 expression, NTX” value (10 uM naltrexone (NTX)) was 107 and the “CDC42SE2 expression, NTX” value (10 uM naltrexone (NTX)) was 161. For the same compound, the “CDKN2AIP expression, NTX” value (10 uM naltrexone (NTX)) was 101, the “DRAP1 expression, NTX” value (10 uM naltrexone (NTX)) was 178 and the “DYNLL2 expression, NTX” value (10 uM naltrexone (NTX)) was 115. The “EIF2S3 expression, NTX” value (10 uM naltrexone (NTX)) was 146, the “EIF3E expression, NTX” value (10 uM naltrexone (NTX)) was 601 and the “EIF3M expression, NTX” value (10 uM naltrexone (NTX)) was 131. For the same compound, the “EIF4B expression, NTX” value (10 uM naltrexone (NTX)) was 423, the “EZR expression, NTX” value (10 uM naltrexone (NTX)) was 841 and the “FRG1 expression, NTX” value (10 uM naltrexone (NTX)) was 124. The “H3F3A expression, NTX” value (10 uM naltrexone (NTX)) was 739, the “HIST1H4C expression, NTX” value (10 uM naltrexone (NTX)) was 1370 and the “HPCAL1 expression, NTX” value (10 uM naltrexone (NTX)) was 275. For the same compound, the “ITGB2 expression, NTX” value (10 uM naltrexone (NTX)) was 443, the “KCTD6 expression, NTX” value (10 uM naltrexone (NTX)) was 116 and the “LSM5 expression, NTX” value (10 uM naltrexone (NTX)) was 218. For the same compound, the “MAP4K1 expression, NTX” value (10 uM naltrexone (NTX)) was 267, the “MORF4L1 expression, NTX” value (10 uM naltrexone (NTX)) was 149 and the “MTF1 expression, NTX” value (10 uM naltrexone (NTX)) was 95. The “MYLK expression, NTX” value (10 uM naltrexone (NTX)) was 124, the “NUCB1 expression, NTX” value (10 uM naltrexone (NTX)) was 337 and the “OR10A6 expression, NTX” value (10 uM naltrexone (NTX)) was 120. The “PAH expression, NTX” value (10 uM naltrexone (NTX)) was 95, the “PDCD4 expression, NTX” value (10 uM naltrexone (NTX)) was 96 and the “PECI expression, NTX” value (10 uM naltrexone (NTX)) was 131. The “PRPF8 expression, NTX” value (10 uM naltrexone (NTX)) was 353, the “PSME2 expression, NTX” value (10 uM naltrexone (NTX)) was 180 and the “PVRL2 expression, NTX” value (10 uM naltrexone (NTX)) was 113. For the same compound, the “RASAL3 expression, NTX” value (10 uM naltrexone (NTX)) was 186, the “S100A6 expression, NTX” value (10 uM naltrexone (NTX)) was 112 and the “SH3BGRL3 expression, NTX” value (10 uM naltrexone (NTX)) was 271. For the same compound, the “WDR75 expression, NTX” value (10 uM naltrexone (NTX)) was 95 and the “YWHAZ expression, NTX” value (10 uM naltrexone (NTX)) was 462.

Source: patent US12497663B2, “Method of monitoring treatment” (LDN Pharma Limited, priority 2019, dated 2025)
